According to US11311542B2, “Inhibitors of cyclin dependent kinase 7 (CDK7)” (Syros Pharmaceuticals, Inc., priority 2018, dated 2022):
Read-outs that look alike come from different tables or passages of the source.

How the values were obtained:
CDK9/Cyclin T1 complex = CDK9/Cyclin T1 complex (Homo sapiens, UniProt P50750); experiment: CDK9 kinase inhibition assay (Caliper/LabChip EZ Reader)
Method: (§1) Compounds described herein were assayed for inhibition of CDK7, CDK9, CDK12, and CDK2 activity at Biortus Biosciences (Jiangyin, Jiangsu Province, P.R. of China) using kinase assays for each CDK developed with a Caliper/LabChip EZ Reader (Perkin Elmer, Waltham, Mass.).
(§2) Furthermore, the CDK9 inhibition assay used CDK9/Cyclin T1 complex (8 nM) and “5-FAM-CDK9tide” peptide substrate (2 μM, synthesized fluorophore-labeled peptide with the following sequence: 5-FAM-GSRTPMY-NH2 (SEQ ID NO:2) where 5-FAM is defined above and NH2 signifies a C-terminal amide) with 10 mM MgCl2 in the buffer composition listed above. The CDK12 inhibition assay used CDK12 (aa686-1082)/Cyclin K complex (50 nM) and “5-FAM-CDK9tide” (2 μM) as defined above, with 2 mM MgCl2 in the buffer composition above. Additionally, the CDK2 inhibition assay used CDK2/Cyclin E1 complex (0.5 nM) and “5-FAM-CDK7tide” (2 μM; defined above) with 2 mM MgCl2 in the buffer composition above.
(§3) The incubation period at 27° C. for each CDK inhibition assay was chosen such that the fraction of phosphorylated peptide product produced in each assay, relative to the total peptide concentration, was approximately 20% (±5%) for the uninhibited kinase (35 min. for CDK7, 35 min. for CDK2, 3 hr. for CDK12, 15 min. for CDK9).

MB453 cells = experiment: Inhibition of cell proliferation (CyQUANT Direct), MB453; format: cell-based, human; details: MB453, 72-hour
COV318 cells = experiment: Inhibition of cell proliferation (CyQUANT Direct), COV318; format: cell-based, human; details: COV318, 72-hour
HCC70 cells = experiment: Inhibition of cell proliferation (CyQUANT Direct), HCC70; format: cell-based, human; details: HCC70, 72-hour
[1] = molecular target: CDK12 (aa686-1082)/Cyclin K complex (Homo sapiens, UniProt Q9NYV4); experiment: CDK12 kinase inhibition assay (Caliper/LabChip EZ Reader)
CDK2/Cyclin E1 complex = CDK2/Cyclin E1 complex (Homo sapiens, UniProt P24941); experiment: CDK2 kinase inhibition assay (Caliper/LabChip EZ Reader)
Method: as §1, §2, §3

[2] = molecular target: CDK7/Cyclin H/MAT1 complex (Homo sapiens, UniProt P50613); experiment: CDK7 kinase inhibition assay (Caliper/LabChip EZ Reader)
Method: as §1, §2, §3

COV504 cells = experiment: Inhibition of cell proliferation (CyQUANT Direct), COV504; format: cell-based, human; details: COV504, 72-hour
[3] = read-out: CDK9 IC50, CDK9/Cyclin T1 8 nM, ATP 2 mM, 15 min at 27° C.
[4] = read-out: CDK12 IC50, CDK12 (aa686-1082)/Cyclin K 50 nM, ATP 2 mM, 3 hr at 27° C.
[5] = read-out: CDK2 IC50, CDK2/Cyclin E1 0.5 nM, ATP 2 mM, 35 min at 27° C.
[6] = read-out: CDK7 IC50, CDK7/Cyclin H/MAT1 6 nM, ATP 2 mM, 35 min at 27° C.

Sequence of CDK7/Cyclin H/MAT1 complex (P50613 whole entry): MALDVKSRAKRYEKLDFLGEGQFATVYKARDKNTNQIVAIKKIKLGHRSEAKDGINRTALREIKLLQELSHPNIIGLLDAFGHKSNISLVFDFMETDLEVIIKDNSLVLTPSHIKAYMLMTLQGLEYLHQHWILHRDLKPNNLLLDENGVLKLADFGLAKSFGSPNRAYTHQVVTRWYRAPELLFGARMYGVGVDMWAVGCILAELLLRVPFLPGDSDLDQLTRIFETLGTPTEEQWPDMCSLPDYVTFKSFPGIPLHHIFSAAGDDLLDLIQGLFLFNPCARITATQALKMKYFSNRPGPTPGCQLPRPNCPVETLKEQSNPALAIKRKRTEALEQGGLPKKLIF
Sequence of CDK7/Cyclin H/MAT1 complex (P51946 whole entry partner): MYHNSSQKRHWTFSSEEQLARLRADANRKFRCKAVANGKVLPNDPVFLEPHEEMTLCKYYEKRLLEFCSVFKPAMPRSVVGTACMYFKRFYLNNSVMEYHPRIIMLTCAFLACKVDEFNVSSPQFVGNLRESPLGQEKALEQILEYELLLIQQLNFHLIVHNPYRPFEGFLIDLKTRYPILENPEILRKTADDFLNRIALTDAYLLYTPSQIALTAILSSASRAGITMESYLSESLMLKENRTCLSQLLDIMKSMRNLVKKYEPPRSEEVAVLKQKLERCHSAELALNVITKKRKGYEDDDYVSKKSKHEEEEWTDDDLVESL
Sequence of CDK7/Cyclin H/MAT1 complex (P51948 whole entry partner): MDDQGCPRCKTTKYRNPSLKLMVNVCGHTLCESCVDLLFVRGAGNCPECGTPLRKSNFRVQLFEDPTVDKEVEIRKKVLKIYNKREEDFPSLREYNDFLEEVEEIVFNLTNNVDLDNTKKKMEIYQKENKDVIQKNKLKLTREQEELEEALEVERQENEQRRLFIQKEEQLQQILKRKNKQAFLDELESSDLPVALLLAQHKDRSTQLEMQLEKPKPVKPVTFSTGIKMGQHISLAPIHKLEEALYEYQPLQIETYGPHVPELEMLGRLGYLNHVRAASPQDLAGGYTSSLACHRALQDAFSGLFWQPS
Sequence of CDK9/Cyclin T1 complex (P50750 whole entry): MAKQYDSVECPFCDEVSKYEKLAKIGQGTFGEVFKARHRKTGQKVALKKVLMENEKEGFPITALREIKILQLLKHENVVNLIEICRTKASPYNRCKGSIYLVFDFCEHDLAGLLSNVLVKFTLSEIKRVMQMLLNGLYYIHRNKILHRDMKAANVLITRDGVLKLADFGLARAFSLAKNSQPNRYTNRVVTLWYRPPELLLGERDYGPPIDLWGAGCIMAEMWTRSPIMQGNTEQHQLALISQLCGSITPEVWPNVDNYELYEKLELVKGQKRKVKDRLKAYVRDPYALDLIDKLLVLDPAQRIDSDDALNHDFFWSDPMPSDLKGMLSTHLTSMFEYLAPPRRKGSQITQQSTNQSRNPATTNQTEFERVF
Sequence of CDK9/Cyclin T1 complex (O60563 whole entry partner): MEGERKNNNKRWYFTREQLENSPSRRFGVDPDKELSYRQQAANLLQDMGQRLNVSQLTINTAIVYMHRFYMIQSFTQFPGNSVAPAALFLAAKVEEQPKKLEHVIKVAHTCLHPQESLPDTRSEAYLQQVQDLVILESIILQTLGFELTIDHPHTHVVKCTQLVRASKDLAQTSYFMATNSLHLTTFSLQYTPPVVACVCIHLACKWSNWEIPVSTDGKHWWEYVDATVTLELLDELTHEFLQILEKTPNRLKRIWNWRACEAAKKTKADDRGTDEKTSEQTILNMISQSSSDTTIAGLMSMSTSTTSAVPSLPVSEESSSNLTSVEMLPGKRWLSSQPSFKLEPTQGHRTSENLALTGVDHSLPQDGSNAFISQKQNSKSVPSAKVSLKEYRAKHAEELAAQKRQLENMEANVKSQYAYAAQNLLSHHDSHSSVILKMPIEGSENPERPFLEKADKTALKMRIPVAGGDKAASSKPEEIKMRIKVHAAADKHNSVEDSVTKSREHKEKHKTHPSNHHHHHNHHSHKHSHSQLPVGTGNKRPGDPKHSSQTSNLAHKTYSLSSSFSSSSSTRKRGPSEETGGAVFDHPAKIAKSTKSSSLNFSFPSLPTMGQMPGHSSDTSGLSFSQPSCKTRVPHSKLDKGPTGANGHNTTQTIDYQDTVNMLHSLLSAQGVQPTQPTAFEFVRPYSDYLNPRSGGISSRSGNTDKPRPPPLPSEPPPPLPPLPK
Sequence of CDK12 (aa686-1082)/Cyclin K complex (Q9NYV4 686-1082): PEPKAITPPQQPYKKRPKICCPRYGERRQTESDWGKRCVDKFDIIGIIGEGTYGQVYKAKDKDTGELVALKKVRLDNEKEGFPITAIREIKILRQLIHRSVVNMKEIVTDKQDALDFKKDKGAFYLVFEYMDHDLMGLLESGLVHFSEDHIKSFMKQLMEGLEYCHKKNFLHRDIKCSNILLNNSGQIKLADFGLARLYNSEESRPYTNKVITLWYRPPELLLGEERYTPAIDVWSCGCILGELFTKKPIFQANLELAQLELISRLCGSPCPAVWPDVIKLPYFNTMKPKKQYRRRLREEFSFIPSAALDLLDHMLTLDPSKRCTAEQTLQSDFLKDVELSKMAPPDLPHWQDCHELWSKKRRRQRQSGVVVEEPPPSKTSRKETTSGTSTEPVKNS
Sequence of CDK12 (aa686-1082)/Cyclin K complex (O75909 whole entry partner, the tested form may be a part): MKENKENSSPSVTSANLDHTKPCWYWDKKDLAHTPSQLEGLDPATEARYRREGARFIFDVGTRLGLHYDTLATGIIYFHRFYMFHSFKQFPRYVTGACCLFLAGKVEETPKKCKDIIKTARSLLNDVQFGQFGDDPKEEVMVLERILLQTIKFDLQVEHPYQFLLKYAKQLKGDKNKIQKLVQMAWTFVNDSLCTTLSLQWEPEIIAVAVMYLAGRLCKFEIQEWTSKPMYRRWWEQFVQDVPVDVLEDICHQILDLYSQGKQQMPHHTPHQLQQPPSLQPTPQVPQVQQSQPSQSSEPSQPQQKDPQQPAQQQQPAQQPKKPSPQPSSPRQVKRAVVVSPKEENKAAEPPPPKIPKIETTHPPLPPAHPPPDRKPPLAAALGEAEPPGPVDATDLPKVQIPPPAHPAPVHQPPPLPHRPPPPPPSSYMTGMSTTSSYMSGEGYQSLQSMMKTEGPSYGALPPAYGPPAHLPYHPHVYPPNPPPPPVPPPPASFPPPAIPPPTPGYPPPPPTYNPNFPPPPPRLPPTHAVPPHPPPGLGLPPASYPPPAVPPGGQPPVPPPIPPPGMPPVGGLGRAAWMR

Compound	IC50 (CDK9/Cyclin T1 complex)	IC50 (MB453 cells; Homo sapiens)	IC50 (COV318 cells; Homo sapiens)	IC50 (HCC70 cells; Homo sapiens)	IC50 [1]	IC50 (CDK2/Cyclin E1 complex)	IC50 [2]	IC50 (COV504 cells; Homo sapiens)	IC50 (CDK9/Cyclin T1 complex; [3])	IC50 (MB453 cells)	IC50 (COV318 cells)	IC50 (HCC70 cells)	IC50 [1, 4]	IC50 (CDK2/Cyclin E1 complex; [5])	IC50 [2, 6]	IC50 (COV504 cells)
Cc1nocc1-c1ccc2c(-c3nc(N[C@H]4CCC(C)(C)NC4)ncc3C(F)(F)F)n[nH]c2n1 [Compound 160, (S)—N-(6,6-dimethylpiperidin-3-yl)-4-(6-(3-methylisoxazol-4-yl)-1H-pyrazolo[3,4-b]pyridin-3-yl)-5-(trifluoromethyl)pyrimidin-2-amine]	> 500 nM	100 to 500 nM	> 1000 nM	> 1000 nM	> 500 nM	> 500 nM	< 30 nM	100 to 500 nM								
Cc1ncoc1-c1ccc2c(-c3nc(N[C@H]4CCCNC4)ncc3C(F)(F)F)c[nH]c2n1 [Compound 161, 4-[6-(4-methyloxazol-5-yl)-1H-pyrrolo[2,3-b]pyridin-3-yl]-N-[(3S)-3-piperidyl]-5-(trifluoromethyl)pyrimidin-2-amine]	> 500 nM	< 100 nM	100 to 500 nM	< 100 nM	> 500 nM	> 500 nM	< 30 nM	< 100 nM								
Cc1nc(-c2ccc3c(-c4nc(N[C@H]5CC[C@H](C)NC5)ncc4C(F)(F)F)c[nH]c3n2)no1 [Compound 162, 4-[6-(5-methyl-1,2,4-oxadiazol-3-yl)-1H-pyrrolo[2,3-b]pyridin-3-yl]-N-[(3S,6S)-6-methyl-3-piperidyl]-5-(trifluoromethyl)pyrimidin-2-amine]	> 500 nM	500 to 1000 nM	> 1000 nM	100 to 500 nM	> 500 nM	> 500 nM	< 30 nM	< 100 nM								
Cc1nc(-c2ccc3c(-c4nc(N[C@@H]5CC[C@@H](C)NC5)ncc4C(F)(F)F)c[nH]c3n2)no1 [Compound 163, 4-[6-(5-methyl-1,2,4-oxadiazol-3-yl)-1H-pyrrolo[2,3-b]pyridin-3-yl]-N-[(3R, 6R)-6-methyl-3-piperidyl]-5-(trifluoromethyl)pyrimidin-2-amine]	> 500 nM	< 100 nM	> 1000 nM	< 100 nM	> 500 nM	> 500 nM	< 30 nM	< 100 nM								
C[C@@H]1CC[C@@H](Nc2ncc(C(F)(F)F)c(-c3c[nH]c4nc(-c5nnnn5C)ccc34)n2)CN1 [Compound 164, N-[(3R, 6R)-6-methyl-3-piperidyl]-4-[6-(1-methyltetrazol-5-yl)-1H-pyrrolo[2,3-b]pyridin-3-yl]-5-(trifluoromethyl)pyrimidin-2-amine]	> 500 nM	< 100 nM	500 to 1000 nM	100 to 500 nM	> 500 nM	> 500 nM	< 30 nM	< 100 nM								
C[C@H]1CC[C@H](Nc2ncc(C(F)(F)F)c(-c3c[nH]c4nc(-c5nnnn5C)ccc34)n2)CN1 [Compound 165, N-[(3S,6S)-6-methyl-3-piperidyl]-4-[6-(1-methyltetrazol-5-yl)-1H-pyrrolo[2,3-b]pyridin-3-yl]-5-(trifluoromethyl)pyrimidin-2-amine]	> 500 nM	500 to 1000 nM	> 1000 nM	> 1000 nM	> 500 nM	> 500 nM	30 to 100 nM	500 to 1000 nM								
Cc1nc(-c2ccc3c(-c4nc(N[C@H]5CC[C@H](C)NC5)ncc4C(F)(F)F)n[nH]c3n2)no1 [Compound 167, 4-[6-(5-methyl-1,2,4-oxadiazol-3-yl)-1H-pyrazolo[3,4-b]pyridin-3-yl]-N-[(3S,6S)-6-methyl-3-piperidyl]-5-(trifluoromethyl)pyrimidin-2-amine]	> 500 nM	100 to 500 nM	100 to 500 nM	< 100 nM	> 500 nM	> 500 nM	< 30 nM	< 100 nM								
Cc1nc(-c2ccc3c(-c4nc(N[C@H]5CCCNC5)ncc4C(F)(F)F)n[nH]c3n2)no1 [Compound 168, 4-[6-(5-methyl-1,2,4-oxadiazol-3-yl)-1H-pyrazolo[3,4-b]pyridin-3-yl]-N-[(3S)-3-piperidyl]-5-(trifluoromethyl)pyrimidin-2-amine]	> 500 nM	< 100 nM	< 100 nM	< 100 nM	> 500 nM	> 500 nM	< 30 nM	< 100 nM								
(3S)-tert-butyl 3-((4-(6-(3,5-dimethylisoxazol-4-yl)-5-fluoro-1H-pyrrolo[2,3-b]pyridin-3-yl)-5-(trifluoromethyl)pyrimidin-2-yl)amino)piperidine-1-carboxylate [Compound 138]									> 500 nM	< 100 nM	< 100 nM	< 100 nM	> 500 nM	> 500 nM	< 30 nM	< 100 nM
(3S,4S)-tert-butyl 3-((4-(6-(3,5-dimethylisoxazol-4-yl)-1H-indol-3-yl)-5-(trifluoromethyl)pyrimidin-2-yl)amino)-4-methylpiperidine-1-carboxylate [Compound 135]									> 500 nM	< 100 nM	> 1000 nM	100 to 500 nM	> 500 nM	> 500 nM	30 to 100 nM	< 100 nM
(S)-tert-butyl 3-((4-(6-(3,5-dimethylisothiazol-4-yl)-1H-pyrrolo[2,3-b]pyridin-3-yl)-5-(trifluoromethyl)pyrimidin-2-yl)amino)piperidine-1-carboxylate [Compound 166]									> 500 nM	< 100 nM	< 100 nM	< 100 nM	> 500 nM	> 500 nM	< 30 nM	< 100 nM
